# Measurements: patent US20110245284A1, “Alkoxy- and Alkylthio-Substituted Anilinopyrimidines” (Bayer CropScience AG, priority 2008, published 2011)
# Tested on: Leptosphaeria nodorum
# Assay: Leptosphaeria nodorum test (wheat) / protective
# Type: in vivo
# Details: Parastagonospora nodorum, active compound concentration 500 ppm, evaluation 7-9 days after inoculation, read-out: efficacy
# Protocol: Thereafter, the plants are placed in a greenhouse at 90% relative atmospheric humidity and a temperature of 22° C.
row,Structure (SMILES),pest or weed control at 500 ppm [%]
1,COCc1cccc(Nc2ncc(Cl)c(NCC(C)(C)C)n2)c1 [Example 142],≥ 70
2,CCSC(C)c1cccc(Nc2ncc(C(F)(F)F)c(NC3CCCC3)n2)c1 (centres unmarked) [Example 37],≥ 70
3,COCCOc1ccc(Nc2ncc(Cl)c(NC3CC3)n2)cc1Cl [Example 68],≥ 70
4,CCCS(=O)(=O)c1cccc(Nc2ncc(Br)c(NC3CCC3)n2)c1 [Example 159],≥ 70
5,Clc1cnc(Nc2cccc(COc3ccccc3)c2)nc1NC1CC1 [Example 50],≥ 70
6,CSC(C)c1cccc(Nc2ncc(C(F)(F)F)c(NC3CCCC3)n2)c1 (centres unmarked) [Example 16],≥ 70
7,CCC(CC)Nc1nc(Nc2cccc(COC)c2)ncc1Cl [Example 144],≥ 70
8,COC(C)c1cccc(Nc2ncc(C(F)(F)F)c(NC3CCCC3)n2)c1 (centres unmarked) [Example 17],≥ 70

# Tested on: not listed separately
# Assay: logP by LC-MS on reversed-phase columns (C 18), method [c], neutral range pH 7.8
# Type: physicochemical
# Details: pH 7.8
# Protocol: (§1) The logP values were determined in accordance with EEC Directive 79/831 Annex V.A8 by HPLC (High Performance Liquid Chromatography) on reversed-phase columns (C 18), using the methods below:
# [c] The LC-MS determination in the neutral range is carried out at pH 7.8 using the mobile phases 0.001 molar aqueous ammonium bicarbonate solution and acetonitrile, linear gradient from 10% acetonitrile to 95% acetonitrile.
chromatographic logP,Structure (SMILES),log p
–,CCCC(C)SC(C)c1cccc(Nc2ncc(C(F)(F)F)c(NC3CC3)n2)c1 (centres unmarked) [Example 135],5.8[c];
–,COCc1cccc(Nc2ncc(Cl)c(N3CCCC3)n2)c1 [Example 87],3.83[c];
–,CCCC(C)[S+]([O-])C(C)c1cccc(Nc2ncc(C(F)(F)F)c(NC3CC3)n2)c1 (centres unmarked) [Example 167],3.85[c];
–,CCCC(C)[S+]([O-])C(C)c1cccc(Nc2ncc(Cl)c(NC3CC3)n2)c1 (centres unmarked) [Example 166],3.1[c];
–,CCCC(C)S(=O)(=O)C(C)c1cccc(Nc2ncc(Cl)c(NC3CC3)n2)c1 (centres unmarked) [Example 165],3.56[c];
2.44,CNc1nc(Nc2cccc(COC)c2)ncc1Cl [Example 172],–
4.09,CCOC(COCc1cccc(Nc2ncc(C(F)(F)F)c(NC3CC3)n2)c1)OCC [Example 238],–
–,COCC(C)Oc1ccc(Nc2ncc(C(F)(F)F)c(NC3CC3)n2)cc1C(F)(F)F (centres unmarked) [Example 80],4.28[c];
–,COCCOC(c1cccc(Nc2ncc(C(F)(F)F)c(NCC3CC3)n2)c1)C(F)(F)F (centres unmarked) [Example 220],4.2[c]
–,COC(COCc1cccc(Nc2ncc(C(F)(F)F)c(NC3CC3)n2)c1)OC [Example 237],3.37[c]
–,Clc1cnc(Nc2cccc(COc3ccc4c(c3)OCO4)c2)nc1NC1CC1 [Example 230],3.87[c]
–,CCOC(CSc1cccc(Nc2ncc(C(F)(F)F)c(NC3CC3)n2)c1)OCC [Example 236],4.55[c]

# Tested on: not listed separately
# Assay: logP by LC-MS on reversed-phase columns (C 18), method [b], acidic range pH 2.7
# Type: physicochemical
# Details: method [b], LC-MS, acidic range pH 2.7
# Protocol: as §1
# [b] The LC-MS determination in the acidic range is carried out at pH 2.7 using the mobile phases 0.1% aqueous formic acid and acetonitrile (contains 0.1% formic acid), linear gradient from 10% acetonitrile to 95% acetonitrile.
row,Structure (SMILES),log p
1,CCOCCOc1cc(Nc2ncc(Cl)c(NC3CC3)n2)ccc1C [Example 48],2.23[b]
2,CCSC(C)c1cccc(Nc2ncc(Cl)c(NC3CC3CC)n2)c1 (centres unmarked) [Example 196],3.99[b]
3,CCC1CC1Nc1nc(Nc2cccc(C(C)OC)c2)ncc1Cl (centres unmarked) [Example 197],2.76[b]
4,O=S(=O)(CCCl)c1cc(Nc2ncc(Cl)c(NC3CC3)n2)ccc1Cl [Example 49],2.67[b]
5,COCc1cccc(Nc2ncc(Br)c(NC3CC(C)C3)n2)c1 (centres unmarked) [Example 200],2.55[b]
6,COC(C)c1cccc(Nc2ncc(Br)c(NC3CC(C)C3)n2)c1 (centres unmarked) [Example 212],2.84[b]

# Same assay, conditions: pH 2.7
row,Structure (SMILES),log p
1,CCCC(C)SC(C)c1cccc(Nc2ncc(C(F)(F)F)c(NC3CC3)n2)c1 (centres unmarked) [Example 135],5.53[b]
2,FC(F)(F)c1cnc(Nc2cccc(COc3ccc4c(c3)OCO4)c2)nc1NC1CC1 [Example 227],3.9[b]
3,CCCC(C)[S+]([O-])C(C)c1cccc(Nc2ncc(C(F)(F)F)c(NC3CC3)n2)c1 (centres unmarked) [Example 167],3.34[b]
4,CCOCCOCc1cccc(Nc2ncc(Cl)c(NC3CC3)n2)c1 [Example 252],2.51[b]
5,CCCC(C)[S+]([O-])C(C)c1cccc(Nc2ncc(Cl)c(NC3CC3)n2)c1 (centres unmarked) [Example 166],2.2[b]
6,CCCC(C)S(=O)(=O)C(C)c1cccc(Nc2ncc(Cl)c(NC3CC3)n2)c1 (centres unmarked) [Example 165],2.48[b]
7,COC(c1cccc(Nc2ncc(Cl)c(NC3CCC3)n2)c1)C(F)(F)F (centres unmarked) [Example 21],2.99[b]
8,C=C(C)CSc1cccc(Nc2ncc(Cl)c(NC3CC3)n2)c1 [Example 38],3.59[b]
9,CCOCCOCc1cccc(Nc2ncc(C(F)(F)F)c(NC3CC3)n2)c1 [Example 253],2.73[b]
10,COCCOc1cccc(Nc2ncc(Cl)c(NC3CC3C(F)(F)F)n2)c1 (centres unmarked) [Example 210],2.66[b]
11,COCC(C)Oc1ccc(Nc2ncc(Cl)c(NC3CC3)n2)cc1C(F)(F)F (centres unmarked) [Example 72],2.91[b]
12,COCC(C)Oc1ccc(Nc2ncc(C(F)(F)F)c(NC3CC3)n2)cc1C(F)(F)F (centres unmarked) [Example 80],4.05[b]
13,CC[S+]([O-])C(C)c1cccc(Nc2ncc(C(F)(F)F)c(NC3CCCC3)n2)c1 (centres unmarked) [Example 42],2.87[b]
14,CCCN(c1nc(Nc2cccc(COC)c2)ncc1Cl)C1CC1 [Example 136],3.68[b]
15,COCc1cccc(Nc2ncc(Cl)c(N3CCCCCC3)n2)c1 [Example 139],2.88[b]
16,Fc1cccc(Nc2ncc(Cl)c(NC3CC3)n2)c1 [Example 86],1.87[b]
17,FC(F)(F)COCc1cccc(Nc2ncc(Cl)c(NC3CC3)n2)c1 [Example 224],2.56[b]
18,COCCOCCOc1ccc(Nc2ncc(Cl)c(NC3CC3)n2)cc1Cl [Example 173],2.12[b]
19,COCc1cccc(Nc2ncc(Cl)c(N(C)CCCN3CCCCCC3=O)n2)c1 [Example 69],1.91[b]
20,CS(=O)(=O)Cc1cccc(Nc2ncc(Cl)c(NC3CC3C(F)(F)F)n2)c1 (centres unmarked) [Example 222],1.96[b]
21,C=C(C)CSc1cccc(Nc2ncc(Br)c(NC3CC3)n2)c1 [Example 3],4.25[b]
22,CCSC(C)c1cccc(Nc2ncc(Cl)c(NC3CC3C(F)(F)F)n2)c1 (centres unmarked) [Example 223],3.93[b]

row,Structure (SMILES),log p
1,COCC(C)Oc1ccc(Nc2ncc(Br)c(NC3CC(C)C3)n2)cc1 (centres unmarked) [Example 213],2.27[b]
2,CCS(=O)(=O)C(C)c1cccc(Nc2ncc(C(F)(F)F)c(NCC3CC3)n2)c1 (centres unmarked) [Example 41],2.65[b]
3,CCS(=O)(=O)c1ccc(Nc2ncc(C(F)(F)F)c(NC3CC3)n2)cc1 [Example 55],2.66[b]
4,COCC(C)Oc1ccc(Nc2ncc(Cl)c(NC3CC3C(F)(F)F)n2)cc1 (centres unmarked) [Example 221],2.48[b]
5,CCSC(C)c1cccc(Nc2ncc(Cl)c(NC3CCC3)n2)c1 (centres unmarked) [Example 11],3.25[b]
6,CCS(=O)(=O)C(C)c1cccc(Nc2ncc(C(F)(F)F)c(NC3CC3)n2)c1 (centres unmarked) [Example 46],2.49[b]
7,CCCC(C)S(=O)(=O)C(C)c1cccc(Nc2ncc(C(F)(F)F)c(NC3CC3)n2)c1 (centres unmarked) [Example 168],3.47[b]
8,FC(F)C(F)(F)COCc1cccc(Nc2ncc(Cl)c(NC3CC3)n2)c1 [Example 232],2.69[b]
9,COCC(C)Oc1ccc(Nc2ncc(Br)c(NC3CC3)n2)cc1Cl (centres unmarked) [Example 4],2.75[b]
10,COC(c1cccc(Nc2ncc(Cl)c(NCC(F)F)n2)c1)C(F)(F)F (centres unmarked) [Example 23],2.93[b]
11,COCc1cccc(Nc2ncc(Cl)c(NC3CC3C(F)(F)F)n2)c1 (centres unmarked) [Example 208],2.64[b]
12,COC(c1cccc(Nc2ncc(Br)c(NC3CCC3)n2)c1)C(F)(F)F (centres unmarked) [Example 10],3[b]
13,CC[S+]([O-])C(C)c1cccc(Nc2ncc(C(F)(F)F)c(NCC3CC3)n2)c1 (centres unmarked) [Example 44],2.3[b]
14,CCSC(C)c1cccc(Nc2ncc(Br)c(NC3CC(C)C3)n2)c1 (centres unmarked) [Example 214],3.85[b]
15,COCc1cc(COC)cc(Nc2ncc(Cl)c(NC3CCC3)n2)c1 [Example 47],2.06[b]
16,CCS(=O)(=O)C(C)c1cccc(Nc2ncc(C(F)(F)F)c(NC3CCCC3)n2)c1 (centres unmarked) [Example 39],3.27[b]
17,COCCOCCOc1ccc(Nc2ncc(Br)c(NC3CC3)n2)cc1 [Example 2],1.69[b]
18,CCS(=O)(=O)C(C)c1cccc(Nc2ncc(Br)c(NC3CCC3)n2)c1 (centres unmarked) [Example 153],2.03[b]
19,CCSC(C)c1cccc(Nc2ncc(C(F)(F)F)c(NC3CCC3)n2)c1 (centres unmarked) [Example 36],4.75[b]
20,COCCOCCOc1ccc(Nc2ncc(C(F)(F)F)c(NC3CC3)n2)cc1Cl [Example 156],3.2[b]
21,FC(F)C(F)(F)COCc1cccc(Nc2ncc(C(F)(F)F)c(NC3CC3)n2)c1 [Example 231],3.7[b]

# Same assay, conditions: pH 2.7, log p
row,chromatographic logP,Structure (SMILES)
1,2.41,CCCC(C)Nc1nc(Nc2cccc(COC)c2)ncc1Cl (centres unmarked) [Example 143]
2,2.37,COCc1cccc(Nc2ncc(Cl)c(NCCC(C)C)n2)c1 [Example 146]
3,2.55,CCCN(C)c1nc(Nc2cccc(COC)c2)ncc1Cl [Example 141]
4,2.72,FC(F)(F)OCCOc1cccc(Nc2ncc(Cl)c(NC3CC3)n2)c1 [Example 241]
5,2.48,COCc1cccc(Nc2ncc(Cl)c(NCC(C)(C)C)n2)c1 [Example 142]
6,5.2,CCSC(C)c1cccc(Nc2ncc(C(F)(F)F)c(NC3CCCC3)n2)c1 (centres unmarked) [Example 37]
7,2.03,CCOCCOCc1cccc(Nc2ncc(Cl)c(NC3CC3)n2)c1 [Example 248]
8,1.18,CNc1nc(Nc2cccc(COC)c2)ncc1Cl [Example 172]
9,4.09,CCOCCOc1ccc(Nc2ncc(C(F)(F)F)c(NC3CC3)n2)cc1C(F)(F)F [Example 186]
10,1.43,COCCOc1ccc(Nc2ncc(Cl)c(NC3CC3)n2)cc1C [Example 174]
11,2.37,CCC(C)CNc1nc(Nc2cccc(COC)c2)ncc1Cl (centres unmarked) [Example 145]
12,2.12,COCCOc1ccc(Nc2ncc(Cl)c(NC3CC3)n2)cc1Cl [Example 68]
13,2.14,COCCOc1ccc(Nc2ncc(C(F)(F)F)c(NC3CC3)n2)cc1C [Example 157]
14,2.41,CCCCCNc1nc(Nc2cccc(COC)c2)ncc1Cl [Example 147]
15,3,CCN(c1nc(Nc2cccc(COC)c2)ncc1Cl)C(C)C [Example 140]
16,2.81,CCCS(=O)(=O)c1cccc(Nc2ncc(Br)c(NC3CCC3)n2)c1 [Example 159]
17,2.92,Clc1cnc(Nc2cccc(COc3ccccc3)c2)nc1NC1CC1 [Example 50]
18,4.48,CSC(C)c1cccc(Nc2ncc(C(F)(F)F)c(NC3CCCC3)n2)c1 (centres unmarked) [Example 16]
19,2.3,CCC(CC)Nc1nc(Nc2cccc(COC)c2)ncc1Cl [Example 144]
20,4.13,COC(C)c1cccc(Nc2ncc(C(F)(F)F)c(NC3CCCC3)n2)c1 (centres unmarked) [Example 17]
21,3.17,CCOCCOCc1cccc(Nc2ncc(C(F)(F)F)c(NC3CC3)n2)c1 [Example 250]
22,3.72,CCOCCOc1ccc(Nc2ncc(C(F)(F)F)c(NC3CC3)n2)cc1Cl [Example 184]
23,2.04,CCS(=O)(=O)c1ccc(Nc2ncc(Cl)c(NC3CC3)n2)cc1 [Example 54]
